No end group written: not given here.
System: human umbilical vein endothelial cells (HUVEC)

Row | Substance | IC50 [µM]
1 | HKNKGKKNGKHNGWKT-OH [SEQ ID NO:9, His-Lys-Asn-Lys-Gly-Lys-Lys-Asn-Gly-Lys-His-Asn-Gly-Trp-Lys-Thr] | 14
2 | GHGHGHGKHKNKGKKN-OH [SEQ ID NO:8, Gly-His-Gly-His-Gly-His-Gly-Lys-His-Lys-Asn-Lys-Gly-Lys-Lys-Asn] | 8

Reference: US6767889B1, “Inhibition of angiogenesis by high molecular weight kininogen and peptide analogs thereof” (Temple University of the Commonwealth System of Higher …, priority 1998, dated 2004)
